What follows are compounds tested against T1, bradykinin 1 receptor (B1R) of the rat (Rattus norvegicus, UniProt P97583) (assay: Functional investigation on the rat bradykinin 1 receptor (B1R), Ca2+ FLIPR assay in CHO K1 rB1R cells). Settings: CHO-K1, B1R antagonism rat; test substance 10 μM; Ca2+ FLIPR, CHO K1 rB1R cells; read-out: B1R Ant. r [10 μM] % Inhibition.
T1 construct: expressed in transfected cells; host or cells: CHO K1 cells
T1 sequence (P97583 1-337): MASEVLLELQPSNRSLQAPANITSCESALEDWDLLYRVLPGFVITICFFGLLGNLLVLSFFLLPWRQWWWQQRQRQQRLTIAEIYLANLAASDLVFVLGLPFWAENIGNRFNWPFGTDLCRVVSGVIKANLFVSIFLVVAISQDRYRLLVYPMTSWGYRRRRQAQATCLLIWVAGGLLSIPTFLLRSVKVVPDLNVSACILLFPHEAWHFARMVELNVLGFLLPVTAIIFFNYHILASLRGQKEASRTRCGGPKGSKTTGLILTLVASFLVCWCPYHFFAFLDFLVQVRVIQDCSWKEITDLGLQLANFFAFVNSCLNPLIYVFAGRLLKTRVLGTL
Format: cell-based
In short: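 Stably transfected CHO K1 cells loaded with Fluo-4; FLIPR Ca2+ fluorescence peak (ex 488/em 540 nm). Compound added first (agonism vs Lys-Des-Arg9-bradykinin ≥50 nM human, Des-Arg9-bradykinin 10 μM rat), then after 10-20 min agonist at EC80; antagonism as % inhibition, IC50 from concentration series, n=2-3, N≥2.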

In order of falling inhibition at 10 µM:
1. COc1cc(C)c(S(=O)(=O)N(C)CCOCC(=O)NCCC2CCC(C(c3cccc(F)c3)N(C)C)CC2)c(C)c1 (centres unmarked) [Example 197, N-(2-(4-((dimethylamino)(3-fluorophenyl)methyl)cyclohexyl)ethyl)-2-(2-(4-methoxy-N,2,6-trimethylphenylsulfonamido)ethoxy)acetamide]  105%
2. COc1cc(C)c(S(=O)(=O)N2CCC(OCC(=O)NCCC3CCC(C(c4cccs4)N(C)C)CC3)C2)c(C)c1 (centres unmarked) [Example 199, N-(2-(4-((dimethylamino)(thiophen-2-yl)methyl)cyclohexyl)ethyl)-2-(1-(4-methoxy-2,6-dimethylphenylsulfonyl)pyrrolidin-3-yloxy)acetamide]  100%
3. COc1ccc(S(=O)(=O)N2CCCCC2COCC(=O)NCCC2CCC(C(c3cccc(F)c3)N(C)C)CC2)cc1 (centres unmarked) [Example 180, N-(2-(4-((dimethylamino)(3-fluorophenyl)methyl)cyclohexyl)ethyl)-2-((1-(4-methoxyphenylsulfonyl)piperidin-2-yl)methoxy)acetamide]  68%
4. COc1ccc(S(=O)(=O)N2CCCCC2COCC(=O)NCC2CCC(C(c3cccc(F)c3)N(C)C)CC2)cc1 (centres unmarked) [Example 179, N-((4-((dimethylamino)(3-fluorophenyl)methyl)cyclohexyl)methyl)-2-((1-(4-methoxyphenylsulfonyl)piperidin-2-yl)methoxy)acetamide]  67%
5. COc1ccc(S(=O)(=O)N2CCC(OCC(=O)NCC3CCC(C(c4cccc(F)c4)N(C)C)CC3)C2)cc1OC (centres unmarked) [Example 184, 2-(1-(3,4-dimethoxyphenylsulfonyl)pyrrolidin-3-yloxy)-N-((4-((dimethylamino)(3-fluorophenyl)methyl)cyclohexyl)methyl)acetamide]  38%
6. CN(C)C(c1cccc(F)c1)C1CCC(CCNC(=O)COCCN(C)S(=O)(=O)c2ccc(Cl)cc2)CC1 (centres unmarked) [Example 186, 2-(2-(4-chloro-N-methylphenylsulfonamido)ethoxy)-N-(2-(4-((dimethylamino)(3-fluorophenyl)methyl)cyclohexyl)ethyl)acetamide]  35%
7. COc1cc(C)c(S(=O)(=O)N(C)CCOCC(=O)NCCC2CCC(C(c3cccc(F)c3)N(C)C)CC2)c(C)c1C (centres unmarked) [Example 183, N-(2-(4-((dimethylamino)(3-fluorophenyl)methyl)cyclohexyl)ethyl)-2-(2-(4-methoxy-N,2,3,6-tetramethylphenylsulfonamido)ethoxy)acetamide]  28%
8. Cc1ccc(S(=O)(=O)N2CCC(OCC(=O)NCC3CCC(C(c4cccc(F)c4)N(C)C)CC3)C2)cc1 (centres unmarked) [Example 185, N-((4-((dimethylamino)(3-fluorophenyl)methyl)cyclohexyl)methyl)-2-(1-tosylpyrrolidin-3-yloxy)acetamide]  28%
9. CN(C)C(c1cccc(F)c1)C1CCC(NC(=O)COCCN(C)S(=O)(=O)c2ccc(Cl)cc2)CC1 (centres unmarked) [Example 196, 2-(2-(4-chloro-N-methylphenylsulfonamido)ethoxy)-N-(4-((dimethylamino)(3-fluorophenyl)methyl)cyclohexyl)acetamide]  27%
10. COc1ccc(S(=O)(=O)N2CCCC2COCC(=O)NC2CCC(C(c3ccccc3)N(C)C)CC2)cc1 (centres unmarked) [Example 182, N-(4-((dimethylamino)(phenyl)methyl)cyclohexyl)-2-((1-(4-methoxyphenylsulfonyl)pyrrolidin-2-yl)methoxy)acetamide]  25%
11. COc1ccc(S(=O)(=O)N2Cc3ccccc3CC2COCC(=O)NCCC2CCC(C(c3cccc(F)c3)N(C)C)CC2)cc1 (centres unmarked) [Example 190, N-(2-(4-((dimethylamino) (3-fluorophenyl)methyl)cyclohexyl)ethyl)-2-((2-(4-methoxyphenylsulfonyl)-1,2,3,4-tetrahydroisoquinolin-3-yl)methoxy)acetamide]  18%
12. COc1cc(C)c(S(=O)(=O)N2CCC(OCC(=O)NC3CCC(C(c4cccc(F)c4)N(C)C)CC3)C2)c(C)c1C (centres unmarked) [Example 189, N-(4-((dimethylamino)(3-fluorophenyl)methyl)cyclohexyl)-2-(1-(4-methoxy-2,3,6-trimethylphenylsulfonyl)pyrrolidin-3-yloxy)acetamide]  16%
13. CN(C)C(c1cccs1)C1CCC(NC(=O)COC2CCN(S(=O)(=O)c3ccccc3)C2)CC1 (centres unmarked) [Example 194, N-(4-((dimethylamino)(thiophen-2-yl)methyl)cyclohexyl)-2-(1-(phenylsulfonyl)pyrrolidin-3-yloxy)acetamide]  14%
14. CN(C)C(c1cccc(F)c1)C1CCC(CNC(=O)COCCN(C)S(=O)(=O)c2c(Cl)cc(Cl)cc2Cl)CC1 (centres unmarked) [Example 188, N-((4-((dimethylamino)(3-fluorophenyl)methyl)cyclohexyl)methyl)-2-(2-(2,4,6-trichloro-N-methylphenylsulfonamido)ethoxy)acetamide]  13%
15. COc1cc(C)c(S(=O)(=O)N2CCC(CCOCC(=O)NC3CCC(C(c4ccc(F)cc4)N(C)C)CC3)CC2)c(C)c1C (centres unmarked) [Example 178, N-(4-((dimethylamino)(4-fluorophenyl)methyl)cyclohexyl)-2-(2-(1-(4-methoxy-2,3,6-trimethylphenylsulfonyl)piperidin-4-yl)ethoxy)acetamide]  12%
16. CN(C)C(c1cccc(F)c1)C1CCC(CCNC(=O)COCCN(C)S(=O)(=O)c2cccc(C(F)(F)F)c2)CC1 (centres unmarked) [Example 192, N-(2-(4-((dimethylamino)(3-fluorophenyl)methyl)cyclohexyl)ethyl)-2-(2-(N-methyl-3-(trifluoromethyl)phenylsulfonamido)ethoxy)acetamide]  10%
17. COc1cc(C)c(S(=O)(=O)N(CCOCC(=O)NC2CCC(C(c3ccccc3)N(C)C)CC2)Cc2ccccc2)c(C)c1C (centres unmarked) [Example 193, 2-(2-(N-benzyl-4-methoxy-2,3,6-trimethylphenylsulfonamido)ethoxy)-N-(4-((dimethylamino) (phenyl)methyl)cyclohexyl)acetamide]  6%
18. COc1cc(C)c(S(=O)(=O)N2CCN(CCOCC(=O)NCCC3CCC(C(c4cccc(F)c4)N(C)C)CC3)CC2)c(C)c1C (centres unmarked) [Example 200, N-(2-(4-((dimethylamino)(3-fluorophenyl)methyl)cyclohexyl)ethyl)-2-(2-(4-(4-methoxy-2,3,6-trimethylphenylsulfonyl)piperazin-1-yl)ethoxy)acetamide]  -3%
19. COc1ccc(S(=O)(=O)N2CCCCC2COCC(=O)NCCC2CCC(C(c3cccc(F)c3)N(C)C)CC2)cc1OC (centres unmarked) [Example 191, 2-((1-(3,4-dimethoxyphenylsulfonyl)piperidin-2-yl)methoxy)-N-(2-(4-((dimethylamino)(3-fluorophenyl)methyl)cyclohexyl)ethyl)acetamide]  -14%

Same assay, conditions: CHO-K1, read-out: B1R Ant. r [10 μM] % Inhibition

`CN(C)C(c1ccccc1)C1CCC(CNC(=O)COC2CCN(S(=O)(=O)c3ccccc3)C2)CC1` (centres unmarked) [Example 195, N-((4-((dimethylamino)(phenyl)methyl)cyclohexyl)methyl)-2-(1-(phenylsulfonyl)pyrrolidin-3-yloxy)acetamide] gave an inhibition at 10 µM of 24%.

From patent US8106055B2, “Substituted amide compounds” (Gruenenthal GmbH, priority 2007, dated 2012)
